Data published in US20210301038A1, “POLYSIALIC ACID AND DERIVATIVES THEREOF, PHARMACEUTICAL COMPOSITION AND METHOD OF PRODUCING POLYSIALIC ACID” (Medizinische Hochschule Hannover (MHH), priority 2018, published 2021).

Experiments:
[1] = system: C57BL/6J mice with intra-mPFC endoNF injection; assay: Novel object recognition test before and after intra-mPFC endoNF injection; format: in vivo, mouse; settings: 30 min before encoding; sarcosine 600 mg/kg i.p. (d2); DP12 (d5) and DP1 (d6) 1 mg/kg intranasally
Protocol: Guide cannulas were fabricated using stainless steel tubing with outer/inner diameter Ø 0.711/0.483 mm (Science Products, Germany). Dummy cannulas were made from entomological pins, size 2, Ø 0.41 mm (FST, Germany). Chronic implantation of cannulas into the mPFC in mice was performed as described previously for intrahippocampal injections (Kochlamazashvili et al., 2012; Senkov et al., 2015; Senkov et al., 2006).
Acute injection of endoNF in vivo was done under a short isoflurane anesthesia. For intra-mPFC injection, we used a digitally controlled infusion system (UltraMicroPump, UMP3, and Micro4 Controller, WPI, USA) fed with a 10 μl-Hamilton syringe and NanoFil 135 μm (35 GA) beveled needle. The thin (135 μm) part of the needle went into the mouse brain during injection, whereas its thick part (430 μm) fit perfectly in the guide cannula (inside 483 μm). Injections were performed as follows: 1) a mouse was anesthetized with 1-3% isoflurane as during implantation; 2) it was put into the stereotaxic frame; 3) the dummy cannula was gently removed from the left guide cannula; 4) a NanoFil injecting needle was carefully placed inside of the guide cannula and advanced further down until reaching the marker (made with a permanent pen at the needle shank (430 μm) to visualize the point when the needle should reach the surface of the brain coming out of the guide cannula (equal to the length of guide cannula); 5) once the marker was reached, a slow (10 μm increment) step dial was used to deepen the needle into the brain; 6) endoNF (2 μg/μl) or vehicle was injected with the following settings: 250 nl per site as deep as 1.5 and 2.25 mm from the brain surface (total injection volume per hemisphere 500 nl, injection rate of 3 nl/s); 7) after injection was complete (˜5 min), the needle was left in the injection site for another 5 min and then gently removed; 8) the dummy cannula was then put back to its place; 9) the same procedure was performed for the right hemisphere. The whole injection process took approximately 20-25 min under isoflurane anesthesia, and the mice recovered rather quickly, starting to move in approximately 2-3 min after being returned to their home cages. Complete recovery of a mouse after such short anesthesia usually occurs within 3-5 min. After injection, mice were returned to their animal facility. Behavior experiments started on the day after injection at approximately the same time, so that we could perform cognitive tests 24 hours after injection.
A white open field arena (50×50×30 cm) was used in the novel object recognition task. All behavior was video recorded and analyzed automatically by software (ANY-maze, version 4.99, Stoelting Co., Wood Dale, Ill.). […]

[2] = system: AAV-GFP-Tau[R406W]-injected mice; assay: Recency test in AAV-GFP-Tau[R406W]-injected mice; format: in vivo, mouse; settings: intranasal delivery
Description: AAVs were produced using the AAV helper free packaging systems AAV-DJ (Cell Biolabs, Inc.). In short, HEK293 cells were transfected with the pAAV-DJ and pHelper constructs along with the viral expression constructs (pAAV vectors) encoding either eGFP or eGFP-Tau[R406W] under the control of a synapsin promotor. After three days, viruses were harvested using freeze-thaw cycles. After lysis, non-viral DNA is digested with Benzonase, and lysate is filtered through a 0.22 μm filter, washed with PBS and concentrated using Amicon Ultra-15 Centrifugal Filter Units with a cut off of 50 kDa. Titers were determined to be >10^10 GC/ml using quantitative Real-Time PCR with primers for the WPRE element in the viral genome.
For stereotaxic delivery of AAVs, mice were anesthetized in a closed chamber using isoflurane (1 ml for 30 s). […]
Animals were randomly assigned to treatment groups using a randomized block design to counterbalance differences in age. […] Novelty detection was evaluated by calculating the discrimination ratio as follows: [novel object time−familiar object time]/[novel object time+familiar object time]×100%. In the recency test, the discrimination ratio was calculated as follows: [least recent object time−most recent object time]/[least object time+most recent object time]×100%. […]

Substance: (α(2→8)Neu5Ac)12 [DP12]
- novel object recognition after intra-mPFC endoNF injection [1]: significantly improved novel object recognition
- rescue of impaired recent object recognition [2]: fully rescued
